# Assay results: patent US20040082606A1, “Excitatory amino acid receptor antagonists” (priority 2003, published 2004)
# Test system: dural protein extravasation
# Experiment: Animal model of dural protein extravasation (electrical stimulation of the trigeminal ganglion, Evans Blue)
# Assay type: in vivo
# Settings: administered orally to rats
# Procedure: The following animal model may be employed to determine the ability of the compounds of Formula I or Formula Ia to inhibit protein extravasation, an exemplary functional assay of the neuronal mechanism of migraine.
# A. Harlan Sprague-Dawley rats (225-325 g) or guinea pigs from Charles River Laboratories (225-325 g) are anesthetized with sodium pentobarbital intraperitoneally (65 mg/kg or 45 mg/kg respectively) and are placed in a stereotaxic frame David Kopf Instruments) with the incisor bar set at −3.5 mm for rats or −4.0 mm for guinea pigs. Following a midline sagital scalp incision, two pairs of bilateral holes are drilled through the skull (6 mm posterially, 2.0 and 4.0 mm laterally in rats; 4 mm posteriorly and 3.2 and 5.2 mm laterally in guinea pigs, all coordinates referenced to bregma). […]
# D. A fluorescence microscope (Zeiss) equipped with a grating monchromator and a spectrophotometer is used to quantify the amount of Evans Blue dye in each sample. An excitation wavelength of approximately 535 nm is utilized and the emission intensity at 600 nm is determined. […] This facilitates the computer-controlled movement of the stage with fluorescence measurements at 25 points ([…]) on each dural sample. The mean and standard deviation of the measurements are determined by the computer. […]
structure (smiles),measurement,value
"CCOC(=O)[C@@H]1C[C@H]2C[C@@H](CN3CC(F)(F)C[C@H]3C(=O)OCC)CC[C@H]2CN1.Cl.Cl [3S,4aR,6S,8aR Ethyl 6-(((2S)-2-Ethoxycarbonyl)4,4-difluoropyrrolidinyl)methyl)-1,2,3,4,4a,5,6,7,8,8a-decahydroisoquinoline-3-carboxylate.dihydrochloride]",ID100 (dose that inhibits the extravasation by 100%),approximately 0.01 ng/Kg
